# Laboratory results as given in ChEMBL document CHEMBL1275330, “Rational design, synthesis, and evaluation of new selective inhibitors of microbial class II (zinc dependent) fructose bis-phosphate aldolases” (J Med Chem, 2010).
# Test: Selectivity ratio of Km/ki for rabbit muscle […] Fba to Km/ki for Helicobacter pylori recombinant zinc dependent class 2 Fba
# Format: tissue-based
# Conditions: Muscle tissue
row,SMILES,Ratio
1,O=C(COP(=O)(O)O)N(O)CCCO,600
2,O=C(COP(=O)(O)O)N(O)CCCOP(=O)(O)O,23000
3,CCCCCCCCCCCC(=O)OCCCCN(O)C(=O)COP(=O)(O)O,19

# Test: Selectivity ratio of Km/ki for rabbit muscle […] Fba to Km/ki for Candida albicans zinc dependent class 2 Fba
# Format: tissue-based
# Conditions: Muscle tissue
row,SMILES,Ratio
1,O=C(COP(=O)(O)O)N(O)CCCO,34000
2,O=C(COP(=O)(O)O)N(O)CCCOP(=O)(O)O,7500
3,CCCCCCCCCCCC(=O)OCCCCN(O)C(=O)COP(=O)(O)O,475

# Test: Selectivity ratio of Km/ki for rabbit muscle […] Fba to Km/ki for Mycobacterium tuberculosis zinc dependent class 2 Fba
# Format: tissue-based
# Conditions: Muscle tissue
row,SMILES,Ratio
1,O=C(COP(=O)(O)O)N(O)CCCO,20000
2,O=C(COP(=O)(O)O)N(O)CCCOP(=O)(O)O,28000
3,CCCCCCCCCCCC(=O)OCCCCN(O)C(=O)COP(=O)(O)O,305
